Measurements taken from the supplement of paper PMC8671470.

Columns and labels:
Conditions in all cases: 72 h
K-562 [1] = test system: K-562
Summary of the method: (§1)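 Seeded in RPMI 1640 at densities within the linear growth range, fifteen myeloid leukaemia cell lines were dispensed into 384-well plates with acoustically pre-printed compounds spanning five tenfold doses from 1 to 10,000 nM, in duplicate. The plates were kept for 72 h at 37 °C in 5% CO2 before luminescent ATP viability was measured and normalised to vehicle and to a positive control at 10 µM. Curves were fitted with a four-parameter log-logistic model. The IC50 was taken from those curves.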

NOMO-1 [2] = test system: NOMO-1
Summary of the method: as §1

MV4-11 [3] = test system: MV4-11
Summary of the method: as §1

HEL [4] = test system: HEL
Summary of the method: as §1

MOLM-13 [5] = test system: MOLM-13
Summary of the method: as §1

KG-1 [6] = test system: KG-1
Summary of the method: as §1

KU-812 [7] = test system: KU-812
Summary of the method: as §1

THP-1 [8] = test system: THP-1
Summary of the method: as §1

ML-2 [9] = test system: ML-2
Summary of the method: as §1

HL-60 [10] = test system: HL-60
Summary of the method: as §1

KCL-22 [11] = test system: KCL-22
Summary of the method: as §1

Mono-Mac-6 [12] = test system: Mono-Mac-6
Summary of the method: as §1

LAMA-84 [13] = test system: LAMA-84
Summary of the method: as §1

BV-173 [14] = test system: BV-173
Summary of the method: as §1

SHI-1 [15] = test system: SHI-1
Summary of the method: as §1

K-562 [16] = assay: cell viability (% survival relative to DMSO control, bortezomib = 0%); higher = less cytotoxic
Summary of the method: (§2)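 After 72 h at 37 °C with 5% CO2, cell viability in 384-well plates was measured by CellTiter-Glo luminescence. The plates held compounds pre-printed at 1, 10, 100, 1000 or 10000 nM in duplicate, and cells from 10 AML and 5 CML lines seeded at densities titrated to linear growth. Percent survival is the duplicate mean, normalised to vehicle as 100% and a 10 µM positive control as 0%.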

NOMO-1 [17] = assay: as above
Summary of the method: as §2

MV4-11 [18] = assay: as above
Summary of the method: as §2

HEL [19] = assay: as above
Summary of the method: as §2

MOLM-13 [20] = assay: as above
Summary of the method: as §2

KG-1 [21] = assay: as above
Summary of the method: as §2

KU-812 [22] = assay: as above
Summary of the method: as §2

THP-1 [23] = assay: as above
Summary of the method: as §2

ML-2 [24] = assay: as above
Summary of the method: as §2

HL-60 [25] = assay: as above
Summary of the method: as §2

KCL-22 [26] = assay: as above
Summary of the method: as §2

Mono-Mac-6 [27] = assay: as above
Summary of the method: as §2

LAMA-84 [28] = assay: as above
Summary of the method: as §2

BV-173 [29] = assay: as above
Summary of the method: as §2

SHI-1 [30] = assay: as above
Summary of the method: as §2

Clc1cc(Cl)c(OCC#CI)cc1Cl [Haloprogin]
Conditions	IC50 (cell viability) [µM]
BV-173 [14]	1.58
HEL [4]	3.48
HL-60 [10]	> 10
K-562 [1]	5.06
KCL-22 [11]	1.71
KG-1 [6]	3.26
KU-812 [7]	2.03
LAMA-84 [13]	5.49
ML-2 [9]	3.25
MOLM-13 [5]	3.95
MV4-11 [3]	2.52
Mono-Mac-6 [12]	2.84
NOMO-1 [2]	3.09
SHI-1 [15]	> 10
THP-1 [8]	1.69

cell viability [%]
Conditions	1 nM	10 nM	100 nM	1000 nM	10000 nM
BV-173 [29]	120	93	104	71.5	0.185
HEL [19]	103	101	106	106	0.615
HL-60 [25]	92.2	109	108	109	51.4
K-562 [16]	93.8	91.4	92.6	95.6	18.1
KCL-22 [26]	95.9	97.1	104	73.9	2.51
KG-1 [21]	108	101	101	101	0.829
KU-812 [22]	104	95	107	80.6	2.77
LAMA-84 [28]	94.4	94.6	99.9	101	21.7
ML-2 [24]	106	108	113	102	-0.066
MOLM-13 [20]	100	113	112	108	6.57
MV4-11 [18]	109	98	101	89	0.356
Mono-Mac-6 [27]	103	95.7	98.8	94.1	0.149
NOMO-1 [17]	109	103	109	98.2	0.243
SHI-1 [30]	97.8	112	107	99.5	62.6
THP-1 [23]	101	97.4	100	74	0.288

C=C1C(=O)O[C@H](CCCCCCCC)[C@H]1C(=O)O [C75]
Conditions	IC50 (cell viability) [µM]
BV-173 [14]	> 10
HEL [4]	> 10
HL-60 [10]	> 10
K-562 [1]	> 10
KCL-22 [11]	> 10
KG-1 [6]	> 10
KU-812 [7]	> 10
LAMA-84 [13]	> 10
ML-2 [9]	> 10
MOLM-13 [5]	> 10
MV4-11 [3]	> 10
Mono-Mac-6 [12]	> 10
NOMO-1 [2]	> 10
SHI-1 [15]	> 10
THP-1 [8]	> 10

cell viability [%]
Conditions	1 nM	10 nM	100 nM	1000 nM	10000 nM
BV-173 [29]	106	94	109	107	105
HEL [19]	101	95.7	105	111	121
HL-60 [25]	89.1	80.8	106	86	120
K-562 [16]	107	98.3	101	108	111
KCL-22 [26]	112	86.8	108	110	134
KG-1 [21]	102	81.1	112	115	114
KU-812 [22]	95	97.6	105	102	106
LAMA-84 [28]	92.2	102	101	104	106
ML-2 [24]	115	90.1	108	110	112
MOLM-13 [20]	102	95.2	106	99.3	137
MV4-11 [18]	106	98.1	103	85.9	116
Mono-Mac-6 [27]	98.1	99.9	103	94.4	98.9
NOMO-1 [17]	108	99.7	113	100	109
SHI-1 [30]	105	98.5	108	100	100
THP-1 [23]	111	94.7	111	108	102

c1ccc2c(c1)SCc1c-2[nH]c2ccccc12
Conditions	IC50 (cell viability) [µM]
BV-173 [14]	0.646
HEL [4]	3.3
HL-60 [10]	2
K-562 [1]	4.42
KCL-22 [11]	2.18
KG-1 [6]	0.76
KU-812 [7]	2.92
LAMA-84 [13]	4.96
ML-2 [9]	1.48
MOLM-13 [5]	1.97
MV4-11 [3]	1.06
Mono-Mac-6 [12]	2.89
NOMO-1 [2]	3.12
SHI-1 [15]	2.6
THP-1 [8]	4.04

cell viability [%]
Conditions	1 nM	10 nM	100 nM	1000 nM	10000 nM
BV-173 [29]	98.6	113	114	27.6	-0.875
HEL [19]	106	102	94.6	94.9	7
HL-60 [25]	100	95.7	102	83	23.4
K-562 [16]	100	100	103	108	12
KCL-22 [26]	96.1	93.2	100	80.9	1.24
KG-1 [21]	104	102	125	34.7	-0.763
KU-812 [22]	99.6	110	105	95.3	0.3
LAMA-84 [28]	106	103	111	109	16.6
ML-2 [24]	106	110	89.8	69	-1.13
MOLM-13 [20]	99.2	87	100	78.6	23.9
MV4-11 [18]	101	101	111	52.8	-0.521
Mono-Mac-6 [27]	97.8	105	103	95.3	-0.27
NOMO-1 [17]	97	107	108	98.2	0.816
SHI-1 [30]	101	96	89.1	84.7	3.75
THP-1 [23]	105	100	106	93.4	33.6
